“Also recorded” adds a separate entry of the source.
B1: A7: AtzA homolog, gene SEQ ID NO:3, protein SEQ ID NO:5 (protein)
chain: ASMVTLTPLFSFSLLNCTRKASRSVMSASSWLVTCGMTTQLRCRFFDGIISALRRVTHYWRHIMQTLSIQHGTLVTMDQYRRVLGDSWVHVQDGRIVALGVHAESVPPPADRVIDARGKVVLPGFINAHTHVNQILLRGGPSHGRQFYDWLFNVVYPGQKAMRPEDVAVAVRLYCAEAVRSGITTINENADSAIYPGNIEAAMAVYGEVGVRVVYARMFFDRMDGRIQGYVDALKARSPQVELCSIMEGTAVAKDRITALSDQYHGTAGGRISVWPAPATTTAVTVEGMRWAQAFARDRAVMWTLHMAESDHDERIHGMSPAEYMECYGLLDERLQVAHCVYFDRKDVRLLHRHNVKVASQVVSNAYLGSGVAPVPEMVERGMAVGIGTDNGNSNDSVNMIGDMKFMAHIHRAVHRDADVLTPEKILEMATIDGARSLGMDHEIGSIETGKRADLILLDLRHPQTTPHHHLAATIVFQAYGNEVDTVLIDGNVVMENRRLSFLPPERELAFLEEAQSRATAILQRANMVANPAWRSLEMTPLLHPPPLEEIAAILARLGLGGGHDLDGYRIAMNAALPSFARVESLVGEGRLRAPASRRSE

Tests used:
[1] = test system: Pseudomonas species strain ADP; assay: effect of ammonium chloride on atrazine clearing on solid media, Pseudomonas; assay type: cell-based; conditions: solid media with 500 ppm atrazine, 2 weeks, 28° C. or 37° C.
Text: (§1) Therefore, it was not necessary to use media free of exogenous ammonia in the screening assays.

[2] = test system: E. coli DH5α (pMD1 or pMD2); assay: effect of ammonium chloride on atrazine degradation, E. coli clones; assay type: cell-based
Text: as §1

[3] = atrazine-degrading activity of AtzA homologs compared with wild type; conditions: compared with wild-type AtzA or parent homolog
Description: Serial dilutions of the transformation reaction were plated onto LB plates containing 50 μg/ml ampicillin, the remainder of the transformation was stored in 25% glycerol and frozen at −80° C.
Environ. Microbiol., 61, 1451-1457 (1995), at a final concentration of 500 μg/ml to produce an opaque suspension of small particles in the clear agar. […] Positive colonies that most rapidly formed the largest clear zones were selected initially for further analysis. The (approximately) 40 best colonies were picked, pooled, grown in the presence of 50 μg/ml ampicillin and plasmid prepared from them.
Enzyme Kinetics. […] The reactions were stopped by boiling the reaction tubes at specific times, the addition of 500 μl acetonitrile and rapid freezing at −80° C. Thawed samples were centrifuged at 14,000 rpm for 10 minutes, the supernatants were filtered through a […] filter, and placed into crimp-seal HPLC vials. HPLC analysis was done as described above.

[4] = TERBUTHYLAZINE-degrading activity of AtzA homologs; assay type: biochemical; conditions: compared with wild-type enzyme
Description: TERBUTHYLAZINE was incorporated in solid LB medium at a final concentration of about 400-500 μg/ml to produce an opaque suspension of sample particles in the clear agar. […] HPLC analysis was performed with a Hewlett Packard HP 1090 Liquid Chromatograph system equipped with a photodiode array detector and interfaced to an HP 79994A Chemstation. TERBUTHYLAZINE and its metabolites were resolved by using an analytical C^18 reverse-phase Nova-Pak HPLC column (4 μm-diameter spherical packing, 150 by 3.9 mm; Waters Chromatography, Milford, Mass.) and an acetonitrile (ACN) gradient, in water, at a flow rate of 1.0 ml min^−1. Linear gradients of 0 to 6 min, 10 to 25% ACN; 6 to 21 min, 25 to 65% ACN; 21 to 23 min, 65 to 100% ACN; and 23 to 25 min, 100% ACN were used. Spectral data of the column eluent were acquired between 200 and 400 nm (12-nm bandwidth per channel) at a sampling frequency of 640 ms. Spectra were referenced against a signal of 500 nm.
Sample 1 is a control sample without enzyme. […] Sample 3 employed the T7 homolog (SEQ ID NO:6) and Sample 4 employed the A7 homolog (SEQ ID NO:5). Results were determined by HPLC as described above. FIG. 8(a) provides the percentage of TERBUTHYLAZINE remaining after a 15 minute exposure to homologs A7, A11, and T7. Samples 1-10 refer to the effect of homolog activity in the presence of 50 uM of: Manganese (1); Mangnesium (2), EDTA (3); cobalt (4); zinc (5); iron (6); copper (7); nickel (8); no metal (9); or no eznyme (10). FIG. 8(b) provides the relative amount of hydroxyterbuthylazine as a measure of TERBUTHYLAZINE degradation for homologs A7 (solid bar), A11 (hatched bar), or T7 (open bar) in the presence or absence of additives 1-10 (supra).

Row | Molecule | ammonium chloride concentration sufficient to inhibit visible clearing [1] [mM] | ammonium chloride tolerance relative to wild type ([2]; E. coli clones vs Pseudomonas strain ADP) | effect of inorganic nitrogen source on atrazine degradation (in words) ([2]; atzA fragments expressed in E. coli) | ammonium chloride concentration at which atrazine degradation was still observed ([2]; solid media with atrazine) [mM] | atrazine degradation activity (in words) [3] | TERBUTHYLAZINE degradation activity (in words) [4]
1 | Cl.N [ammonium chloride] | 0.6 to 1.2 | 40-80 fold | unaffected | ≤ 48 |  | 
2 | B1 |  |  |  |  | enhanced atrazine degradation activity | better than the wild-type enzyme; also recorded: enhanced TERBUTHYLAZINE degradation activity
